In patent US11136327B2, “Macrocycles as factor XIA inhibitors” (Bristol-Myers Squibb Company, priority 2010, dated 2021):
Where two headings read alike, the source gives them in different places.

Columns and labels:
[1] = not given; remark: listed apart in the source
[2] = biological target: purified human Factor XIa (Homo sapiens (Human), UniProt P03951); test: Factor XIa enzyme inhibition assay (chromogenic substrate S-2366); type: biochemical; conditions: substrate S-2366, pH 7.4
Experimental: The effectiveness of compounds of the present invention as inhibitors of the coagulation Factors XIa, VIIa, IXa, Xa, XIIa, plasma kallikrein or thrombin, can be determined using a relevant purified serine protease, respectively, and an appropriate synthetic substrate. The rate of hydrolysis of the chromogenic or fluorogenic substrate by the relevant serine protease was measured both in the absence and presence of compounds of the present invention. […] A decrease in the rate of absorbance or fluorescence change in the presence of inhibitor is indicative of enzyme inhibition. Such methods are known to one skilled in the art. The results of this assay are expressed as the inhibitory constant, Ki.
Values of Ki were determined by allowing the protease to react with the substrate in the presence of the inhibitor. Reactions were allowed to go for periods of 20-180 minutes (depending on the protease) and the velocities (rate of absorbance or fluorescence change versus time) were measured. The following relationships were used to calculate Ki values: (vo−vs)/vs=I/(Ki(1+S/Km)) for a competitive inhibitor with one binding site; or vs/vo=A+((B−A)/1+((IC50/(I)n))); and Ki=IC50/(1+S/Km) for a competitive inhibitor where: […]

[3] = from C=CCCCc1ccccc1-c1cn(COCC[Si](C)(C)C)c([C@H](CC=C)NC(=O)OC(C)(C)C)n1, rcm bond, 12-membered ring, Grubbs II (0.4 eq)/pTsOH, DCM, 0.97 mM, 40.0 °C, 1.0 h
[4] = from C=CCCOc1ccccc1-c1cn(COCC[Si](C)(C)C)c([C@H](CC=C)NC(=O)OC(C)(C)C)n1, rcm bond, 12-membered ring, Grubbs II (1 eq)/pTsOH, DCM, 1.02 mM, 40.0 °C, 1.0 h

Chain of purified human Factor XIa (P03951 388-625): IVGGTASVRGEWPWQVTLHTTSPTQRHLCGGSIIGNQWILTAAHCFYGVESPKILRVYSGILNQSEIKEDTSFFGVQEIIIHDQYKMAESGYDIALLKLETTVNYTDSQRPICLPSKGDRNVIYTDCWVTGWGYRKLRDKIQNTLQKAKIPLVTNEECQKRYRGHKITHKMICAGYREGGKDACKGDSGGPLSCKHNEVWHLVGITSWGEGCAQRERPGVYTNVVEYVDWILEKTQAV
Chain of purified human Factor XIa (P03951 19-387 partner): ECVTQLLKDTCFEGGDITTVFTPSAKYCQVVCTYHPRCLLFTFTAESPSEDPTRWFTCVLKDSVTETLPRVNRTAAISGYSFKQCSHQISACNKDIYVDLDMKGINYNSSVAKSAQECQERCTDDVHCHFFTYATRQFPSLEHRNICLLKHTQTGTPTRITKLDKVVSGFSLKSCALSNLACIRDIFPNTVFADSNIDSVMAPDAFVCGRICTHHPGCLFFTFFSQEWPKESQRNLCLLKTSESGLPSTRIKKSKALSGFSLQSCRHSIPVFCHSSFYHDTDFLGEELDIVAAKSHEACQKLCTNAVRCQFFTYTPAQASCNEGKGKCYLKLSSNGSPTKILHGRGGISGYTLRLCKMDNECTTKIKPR

`COC(=O)Nc1ccc2c(c1)NC(=O)CC/C=C/CC(NC(=O)OC(C)(C)C)c1cc-2nnc1Cl` (centres unmarked) gave a ring closure, isolated yield (from C=CCCC(=O)Nc1cc(NC(=O)OC)ccc1-c1cc(C(CC=C)NC(=O)OC(C)(C)C)c(Cl)nn1, rcm bond, 13-membered ring, Grubbs II, DCM, 6.6 mM, 1.0 h) of 56%.
`COC(=O)Nc1ccc2c(c1)N(C(=O)C(F)(F)F)[C@@H](C(=O)OC)CC=CC[C@H](NC(=O)OC(C)(C)C)c1nc-2cn1COCC[Si](C)(C)C` showed a ring closure, isolated yield (from C=CC[C@H](NC(=O)OC(C)(C)C)c1nc(-c2ccc(NC(=O)OC)cc2N(C(=O)C(F)(F)F)[C@H](CC=C)C(=O)OC)cn1COCC[Si](C)(C)C, rcm bond, 12-membered ring, Grubbs II (15 mol%), DCE, 37.3 mM, 84.0 °C, 15.0 h) of 37%.
In the case of `CC(C)(C)OC(=O)N[C@H]1C/C=C\CCCc2ccccc2-c2cn(COCC[Si](C)(C)C)c1n2`, the ring closure, isolated yield [3] is reported as 17.6%.
For `COC(=O)Nc1ccc2c(c1)N[C@@H](C(=O)OC)CC=CC[C@H](NC(=O)OC(C)(C)C)c1nc-2cn1COCC[Si](C)(C)C`, the ring closure, isolated yield (from C=CC[C@H](NC(=O)OC(C)(C)C)c1nc(-c2ccc(NC(=O)OC)cc2N[C@H](CC=C)C(=O)OC)cn1COCC[Si](C)(C)C, rcm bond, 12-membered ring, Grubbs II (0.4 eq), DCE, 40.0 mM, 120.0 °C, 0.33 h) was 30%.
In the case of `COC(=O)c1ccc2c(c1)OCCNC(=O)CC(NC(=O)OC(C)(C)C)c1cc-2nnc1Cl` (centres unmarked), the ring closure, yield after HPLC ([1]; from COC(=O)c1ccc(-c2cc(C(CC(=O)O)NC(=O)OC(C)(C)C)c(Cl)nn2)c(OCCN)c1, amide bond, 12-membered ring, BOP/DIEA/DMAP, DCM/DMF, 1.28 mM, 2.5 h) is reported as 15.3%.
Molecule `CC(C)(C)OC(=O)N[C@H]1C/C=C\CCOc2ccccc2-c2cn(COCC[Si](C)(C)C)c1n2` has a ring closure, isolated yield [4] of 9%.
Work on `CC(C)(C)OC(=O)N[C@H]1C/C=C/CCCc2ccccc2-c2cn(COCC[Si](C)(C)C)c1n2` yielded a ring closure, isolated yield [3] of 45.3%.
With `COC(=O)Nc1ccc2c(c1)NC(=O)CC/C=C/CC(NC(=O)/C=C/c1cc(Cl)ccc1-n1cnnn1)c1cc-2nnc1Cl` (centres unmarked) [Example 89, {(E)-17-Chloro-15-[(E)-3-(5-chloro-2-tetrazol-1-yl-phenyl)-acryloylamino]-9-oxo-8,18,19-triaza-tricyclo[14.3.1.0^2,7]icosa-1(20),2,4,6,12,16,18-heptaen-5-yl}-carbamic Acid Methyl Ester] the Ki [2] was 1060 nM.
Molecule `CC(C)(C)OC(=O)N[C@H]1C/C=C\CCC(=O)Nc2ccccc2C2=NN=C1O2` (mixture of isomers) has a ring closure, yield after HPLC ([1]; from C=CCCC(=O)Nc1ccccc1-c1nnc([C@H](CC=C)NC(=O)OC(C)(C)C)o1, rcm bond, 13-membered ring, Grubbs II, DCM, 4.8 mM, 75.0 °C, 1.5 h) of 27%.
Molecule `COC(=O)Nc1ccc2c(c1)NC(=O)CC/C=C/C[C@H](NC(=O)OC(C)(C)C)c1cc-2ccn1` has a ring closure, yield after HPLC ([1]; from C=CCCC(=O)Nc1cc(NC(=O)OC)ccc1-c1ccnc([C@H](CC=C)NC(=O)OC(C)(C)C)c1, rcm bond, 13-membered ring, Grubbs II/pTsOH, DCM, 0.99 mM, 40.0 °C, 1.5 h) of 75%.
For `COC(=O)Nc1ccc2c(c1)N[C@@H](C(=O)NCc1ccccn1)CCCC[C@H](NC(=O)/C=C/c1cc(Cl)ccc1-n1cnnn1)c1cc-2ccn1` [II-58], the Ki [2] was 21 nM.
Molecule `COC(=O)Nc1ccc2c(c1)NC(=O)CC/C=C/C[C@H](NC(=O)OC(C)(C)C)C1=NN=C2O1` has a ring closure, isolated yield (from -[5-((S)-1-tert-Butoxycarbonylamino-but-3-enyl)-1,3,4-oxadiazol-2-yl]-3-pent-4-enoylamino-phenyl}-carbamic acid methyl ester, rcm bond, 13-membered ring, Grubbs II (0.36 eq), DCE, 0.61 mM, 75.0 °C) of 19.1%.
For `COC(=O)Nc1ccc2c(c1)CCCN(C)C(=O)C[C@H](NC(=O)OC(C)(C)C)c1nc-2cn1COCC[Si](C)(C)C`, the ring closure, isolated yield (from CNCCCc1cc(NC(=O)OC)ccc1-c1cn(COCC[Si](C)(C)C)c([C@H](CC(=O)O)NC(=O)OC(C)(C)C)n1, amide bond, 12-membered ring, BOP/DIEA/DMAP, DCM/DMF, 8.6 mM, 25.0 °C, 2.0 h) was 39.4%.
`COC(=O)Nc1ccc2c(c1)NC(=O)C/C=C/CC(NC(=O)OC(C)(C)C)c1cc-2nc(C)n1` (centres unmarked) gave a ring closure, isolated yield (from C=CCC(=O)Nc1cc(NC(=O)OC)ccc1-c1cc(C(CC=C)NC(=O)OC(C)(C)C)nc(C)n1, rcm bond, 12-membered ring, Grubbs II (0.4 eq)/HCl, DCM, 0.5 mM, 40.0 °C, 4.0 h) of 22%.
With `COC(=O)Nc1ccc2c(c1)NC(=O)CCN(C(=O)OC(C)(C)C)C[C@H](NC(=O)OCc1ccccc1)c1nc-2cn1COCC[Si](C)(C)C` the ring closure, isolated yield (from COC(=O)Nc1ccc(-c2cn(COCC[Si](C)(C)C)c([C@H](CN(CCC(=O)O)C(=O)OC(C)(C)C)NC(=O)OCc3ccccc3)n2)c(N)c1, amide bond, 12-membered ring, BOP/DIEA, DCM/DMF, 0.93 mM, 25.0 °C, 5.0 h) was 87%.
Work on `CC(C)(C)OC(=O)N[C@H]1C/C=C/CCOc2ccccc2-c2cn(COCC[Si](C)(C)C)c1n2` yielded a ring closure, isolated yield [4] of 20%.
“(S)-Methyl N-4-(2-(1-(tert-butoxycarbonylamino)but-3-enyl)-1-((2-(trimethylsilyl)ethoxy)methyl)-1H-imidazol-4-yl)-3-(4-methylpent-4-enamido)phenylmethanimidoperoxoate” gave a ring closure, isolated yield (the molecule shown is the open-chain precursor, rcm bond, 13-membered ring, Grubbs II (0.2 eq), microwave, DCE, 105.0 mM, 120.0 °C) of 34.6%.
